Structures are written as SMILES.

Data on 19 molecules can be found in article PMC9585585, “Discovery of Small-Molecule Allosteric Inhibitors of PfATC as Antimalarials” (Journal of the American Chemical Society, 2022).

The target of one assay is T1, HsATC (Homo sapiens, UniProt P27708).
T1 construct: ATCase domain of CAD; made in house; host or cells: E. coli BL21 star
T1 sequence (P27708 1918-2225 limits assumed): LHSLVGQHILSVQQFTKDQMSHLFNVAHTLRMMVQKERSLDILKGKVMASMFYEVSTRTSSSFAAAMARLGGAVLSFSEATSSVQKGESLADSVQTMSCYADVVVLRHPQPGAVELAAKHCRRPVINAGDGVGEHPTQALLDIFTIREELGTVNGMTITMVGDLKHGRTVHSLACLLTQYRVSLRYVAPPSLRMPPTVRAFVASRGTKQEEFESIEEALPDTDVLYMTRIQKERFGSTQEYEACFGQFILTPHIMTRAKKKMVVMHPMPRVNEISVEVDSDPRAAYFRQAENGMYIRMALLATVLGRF
Nature of the assay: HsATC activity assay. It is filed as biochemical. Particulars: in vitro activity assay, 10 mM L-aspartate, 5 mM carbamoyl phosphate; read-out: HsATC IC50. The method, then: 417100μL of stop mix (two volumes of Antipyrine (26.5 mM 2,3-Dimethyl-1-phenyl-3-pyrazolin-5-
418one in 50% (v/v) sulfuric acid) and one volume of 2,3-Butanedione monoxime (80 mM 2,3-
419Butanedione monoxime in 5% (v/v) acetic acid). After plates were sealed with transparent sealing
(§1) 420tape to prevent evaporation and incubated overnight in the dark place at room temperature. After
421incubation, the plates were heated at 95 °C for 15 min in dark place, and kept for 30 min before
422measuring at 466 nm suing a Synergy H1 Hybrid Reader (BioTek). Analyses were performed using
423Microsoft Excel and Graph Pad Prism.
424HsATC activity assay. The enzymatic assay was performed as described herein above for
425enzymatic assay of PfATC with minor modifications. Briefly, the reaction was carried out at room
426temperature in a total volume of 150 μl of 10 mM L-aspartate and 5 mM carbamoyl phosphate
427saturated substrate solution in 50 mM Tris-Acetate buffer pH 8.3. hsATC was pre-incubated with
428inhibitor and L-Asp for 10 min at room temperature on a shaker. The reaction was initiated by
429adding CP and stopped after 5 min with […] color mix. Then the plate was covered by sealing
(§2) 430tape and kept in dark place at room temperature and then heated to 95 °C for 15min in dark and kept
431the plate in the dark for another 30 min before measuring the absorbance at 466 nm suing a Synergy
432H1 Hybrid Reader (BioTek). […]

In another assay the target is PfATC (Plasmodium falciparum, UniProt A0A5K1K910). Briefly: biochemical. Particulars: in vitro activity assay, PfATC 50 nM, 2 mM CP, 1 mM aspartate; read-out: PfATC IC50. The method, then:
Following washing with Lysis buffer
Excess imidazole was removed and the His-tag was cleaved
400Then, the sample was loaded onto a 5 ml HiTrap SP HP column (GE Healthcare, USA) and
410PfATC activity assay. Enzymatic reactions were performed in a total volume of 150 µL in 50 mM
Small-molecule dose-response curves were
The reactions were initiated by adding CP and quenched after 10 min with
After plates were sealed with transparent sealing
as §1
Analyses were performed using
The enzymatic assay was performed as described herein above for
Briefly, the reaction was carried out at room
The reaction was initiated by
Then the plate was covered by sealing
as §2

For the next assay, the system named is P. falciparum 3D7. Briefly: Growth-inhibition assay of P. falciparum (SYBR Green I). It is filed as cell-based, Plasmodium falciparum. Particulars: P. falciparum 3D7, 96 h; read-out: EC50 against blood stage 3D7 cultures. As for the experimental part:
488Cell culture and growth-inhibition assay of P. falciparum. P. falciparum 3D7 parasites
489(Wellcome Trust Dundee) were maintained in continuous culture at 37 °C and an atmosphere
490consisting of 90% N 2, 5% O2, and 5% CO2 as described previously 30 with modifications.31
491Parasites were maintained in 25 mM 4-(2-hydroxyethyl)-1-piperazineethanesulfonic acid (HEPES)
492and 11.9 mM sodium bicarbonate buffered RPMI 1640 medium supplemented with D-glucose
493(11 mM), hypoxanthine, AlbuMAX-I (0.5% w/v), and 10 µg/mL gentamicin. 0+ blood was
494provided by “Hospital Novo Atibaia” (Brazil) in agreement with the ethics committee at ICB-USP.
495Compounds were tested for their inhibitory effect against P. falciparum 3D7 conducting SYBR
496Green I (Invitrogen) drug assays as reported. 32, 33 Briefly, two-fold serial dilutions of compounds
497were prepared in 96-well plates starting from 100 and 20 µM in technical triplicate and incubated
498for 96 h under normal growth conditions using an initial parasitemia of 0.5% and a hematocrit of
4992% in a volume of 100 µL per well. Parasite proliferation was measured by quantifying DNA via
500SYBR Green I emitted fluorescence in the wells after addition of 100 µL lysis buffer supplemented
501with SYBR Green I (0.02% v/v) and incubation for 1 h at room temperature in the dark.
502Fluorescence was quantified using a CLARIOstar plate reader (BMG Labtech, Germany) at
503excitation and emission wavelength bands of 485 (± 9) and 530 (± 12) nm, respectively. Focal and
504gain adjustment was performed using the negative controls (highest expected fluorescence signal).
505Data was acquired via the CLARIOstar (V5.20) and MARS software, manually normalized, and
506plotted using the nonlinear regression curve fit implemented in GraphPad Prism as described below
507in more detail. Non-treated parasites, highest solvent concentration on parasites, and highest drug
508concentration in medium were used as controls for maximal growth, solvent control, and native
509drug fluorescence, respectively.
511Nonlinear regression fit and analysis of dose-response drug assays. Nonlinear regression as
512implemented in GraphPad Prism 8.4.3 (log(inhibitor) vs. response – Variable slope (four
513parameters)) was used to fit the measured data to interpolate the IC 50 value from the curve. No
514specific model was applied. Data was pre-processed by min-max-scaling according to the
517where y is the fluorescence signal in each well, y minimum the background fluorescence, and ymaximum
518the highest measured fluorescence signal in the untreated wells. Drug concentrations (in µM) were
519transformed to the log(10)of the values. Means of each independent experiment were plotted as
520individual values, and the SD of the mean from the means shown as error bars. The test for
521homoscedasticity was performed to confirm if no weighting of values was appropriate.

In another assay the test system is malarial parasite. Also on record: method as in PMID 32129597. Particulars: cited from earlier work.

Chain of PfATC (A0A5K1K910 entry or part of it): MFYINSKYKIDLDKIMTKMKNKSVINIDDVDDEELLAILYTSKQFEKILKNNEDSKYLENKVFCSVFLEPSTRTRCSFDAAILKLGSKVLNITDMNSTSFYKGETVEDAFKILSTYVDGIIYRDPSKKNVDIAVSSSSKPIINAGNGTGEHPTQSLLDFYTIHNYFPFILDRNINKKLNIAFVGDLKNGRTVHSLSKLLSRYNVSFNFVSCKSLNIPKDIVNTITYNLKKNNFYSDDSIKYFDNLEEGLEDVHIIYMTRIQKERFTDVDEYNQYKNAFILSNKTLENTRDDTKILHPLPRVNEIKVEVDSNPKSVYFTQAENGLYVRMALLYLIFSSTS

Broadly, the IC50 is the concentration that inhibits the measured activity by half. Usually EC50 stands for the concentration at which the effect is half-maximal. Consider `CC(C)(C)OC(=O)Nc1sc(-c2ccccc2)cc1C(=O)NCC(O)c1ccccc1` (stereo not drawn) [BDA-16], for which the 50% inhibitory concentration (IC50) stood at 870 nM on HsATC and 6080 nM on PfATC. Further, the EC50 in the assay with P. falciparum 3D7 came to 1960 nM.

Consider `COc1ccccc1CCNC(=O)c1cc(-c2ccccc2)sc1NC(=O)OC(C)(C)C` [BDA-18], for which the IC50 at HsATC worked out at 259 nM; at PfATC, 1330 nM. Besides, in the assay on P. falciparum 3D7, the EC50 came to 1850 nM.

`CC(C)CCNc1sc(-c2ccccc2)cc1C(=O)NCCc1ccc(O)cc1` [BDA-19]: the results for the IC50 at HsATC and on PfATC were 678 nM and 4070 nM, respectively. Besides, the EC50 with P. falciparum 3D7 was 2330 nM.

In the case of `CC(C)(C)OC(=O)Nc1sc(-c2ccccc2)cc1C(=O)NCCc1ccc(C(F)(F)F)cc1` [BDA-21], the IC50 on HsATC was 620 nM; on PfATC, 554 nM. The EC50 in the assay with P. falciparum 3D7 stood at 2420 nM.

For the molecule `CC(C)(C)OC(=O)Nc1sc(-c2ccccc2)cc1C(=O)NCCc1ccc(Br)cc1` [BDA-22], the IC50 on HsATC turned out to be 573 nM; on PfATC, 473 nM. Besides, the EC50 in the assay with P. falciparum 3D7 turned out to be 2890 nM.

For the molecule `CC(C)(C)OC(=O)Nc1sc(-c2ccccc2)cc1C(=O)NCCN1CCOCC1` [BDA-57], the IC50 was determined as 381 nM at HsATC and 800 nM on PfATC.

With `Nc1sc(Cc2ccccc2)cc1C(=O)NCCc1ccc(O)cc1` [BDA-58], the values for the IC50 on HsATC and at PfATC were 1230 nM and 4830 nM, respectively.

With `CC(C)(C)OC(=O)Nc1sc(Cc2ccccc2)cc1C(=O)NCCc1ccc(O)cc1` [BDA-59], the IC50 at HsATC came to 2590 nM; at PfATC, 3110 nM.

Regarding `CC(C)(C)OC(=O)Nc1sc(-c2ccccc2)c(-c2ccccc2)c1C(=O)NCCc1ccc(O)cc1` [BDA-60], the IC50 was determined as 1050 nM on HsATC and 2010 nM on PfATC.

Take `CC(C)c1cc(C(=O)NCCc2ccc(O)cc2)c(N)s1` [BDA-61]: the IC50 was 862 nM at HsATC and 1980 nM at PfATC.

For the molecule `CC(C)c1cc(C(=O)NCCc2ccc(O)cc2)c(NC(=O)OC(C)(C)C)s1` [BDA-62], the IC50 at HsATC came to 1120 nM; at PfATC, 2200 nM.

For the molecule `CC(C)(C)OC(=O)Nc1sc(-c2ccccc2)cc1C(=O)N1CCN(c2ccc(O)cc2)CC1` [BDA-63], the IC50 at HsATC was 250 nM; at PfATC, 1090 nM.

As for `COC(=O)c1c(NC(=O)OC(C)(C)C)sc2c1CCN(Cc1ccccc1)C2` [BDA-64], the values for the IC50 on HsATC and at PfATC were 704000 nM and 86900 nM, respectively.

As for `COC(=O)c1c(NC(=O)OC(C)(C)C)sc2c1CCC(c1ccccc1)C2` (stereo not drawn) [BDA-65], the IC50 at HsATC was determined as 5170 nM; at PfATC, 6420 nM.

With `COC(=O)c1c(N)sc2c1CCC(c1ccccc1)C2` (stereo not drawn) [BDA-66], the IC50 on HsATC amounted to 764 nM; at PfATC, 1290 nM.

`COC(=O)c1c(NC(=O)OC(C)(C)C)sc2c1CCCC2` [BDA-67]: the IC50 on HsATC was 1010 nM; at PfATC, 1360 nM.

On to `COC(=O)c1cc(-c2ccc3c(c2)OCCO3)sc1NC(=O)OC(C)(C)C` [BDA-69], for which the figures for the IC50 at HsATC and at PfATC were 1030 nM and 1050 nM, respectively.

With `N#CC1(C(=O)Nc2sc(-c3ccccc3)cc2C(=O)NCCc2ccc(O)cc2)CC1` [BDA-70], the IC50 on HsATC was 556 nM; at PfATC it was 876 nM.

With `O=C(O)C[C@H](NC(=O)CP(=O)(O)O)C(=O)O` [PALA, N-(phosphonoacetyl)-L-aspartate], the “inhibitory effects in ex vivo experiments” value in the assay on malarial parasite was “no inhibitory effects”.
